Laboratory results published in PMC11211886 (Frontiers in Pharmacology, 2024).
“And” between values parts separate entries of the source, which are not always exact repeats. Identical values can stand only once. Like-named read-outs stand apart in the source and are kept apart here.

What was measured:
[1] = Metabolic stability in monkey liver microsomes; assay type: in vitro ADME
Protocol: FMO was deactivated by heating liver microsomes at 45°C for 5 min. […] The natural logarithm of the percentage of the drug remaining was plotted against the incubation time, and the slope of the linear regression (-k) was converted to in vitro half-lives (t1/2) using the following equation: […] (1) metabolic clearance is the major mechanism of clearance; (2) liver is the major organ of clearance; and (3) oxidation is the major metabolic pathway. CLint,in vitro=k / Cmicrosomes , Scaled CLint,in vivo=CLint,in vitro×microsomes yield×liver weight, where Cmicrosomes means the experimental protein concentration (0.5 mg/mL) in the incubation system. […] Then, the scaled in vivo intrinsic clearance was used to predict the systemic clearance (equal to the hepatic clearance) using the well-stirred venous equilibration model ([Houston, 1994]).

plasma proteins = test: Plasma protein binding (RED), monkey plasma; assay type: in vitro ADME
Protocol: The plate containing plasma and buffer was equilibrated for 6 h in a 37°C water shaking bath. After incubation, aliquots of buffer and plasma (20 µL) on both sides were collected and precipitated using organic solvents. […] The post-dialysis recovery of amdizalisib was also measured.

[2] = Tissue distribution in SD rats after oral dose; design: species or system SD rat; details: in vivo
Protocol: After blood collection, the rats were sacrificed, and 18 tissues, namely, brain, breast, skin, fat, testis, ovary, bladder, pancreas, skeletal muscle, heart, lung, kidney, liver, stomach, small intestine, colon, spleen, and spinal cord, were removed from the rats at designated time points. These tissues were washed with saline and dried with filter paper. […] (Cheongju-si, Korea). […] The weight of the collected samples was recorded. Samples were stored in a −20°C freezer until analysis.

[3] = Whole blood-to-plasma partition, dog blood; assay type: in vitro ADME
Protocol: The whole blood and plasma samples were incubated at 37°C for up to 1 h. Serial samples (150 µL) were collected at different time points (0, 10, and 60 min) and transferred into new tubes. The whole blood samples were then centrifuged at 1700 g for 15 min to harvest plasma.

CYP2C9 mRNA = test: CYP induction in human hepatocytes, CYP2C9 mRNA (RT-PCR)
Protocol: […] […] […] Enzyme activity for each CYP isoform was reported as a fold change over vehicle control and the percent of positive control (detailed calculation in Supplementary 1.1). Hepatocytes were harvested with a lysis buffer from RNeasy 96 Kit (Qiagen Inc., Germantown, MD, USA) to isolate RNA, which was analyzed by real-time quantitative polymerase chain reaction (RT-PCR). […] Emax (the maximal observed induction) and EC50 (the concentration that supports half-maximal induction) were estimated by non-linear regression of fold increase in CYP mRNA expression versus concentration plots.
% of positive control = [(fold change in treated sample)-1] / [(fold change in positive control)-1] × 100
Based on the gene expression, a minimum of 4-fold increase of positive control compared to vehicle control, a minimum of 2-fold increase of the test article compared vehicle control and increased in a concentration-dependent manner was considered as the cutoff for a positive signal in in vitro induction assay.

CYP2C19 = biological target: T1, CYP2C19 (Homo sapiens, UniProt P33261); test: Reversible CYP inhibition in HLM, CYP2C19 (S-mephenytoin); assay type: in vitro ADME; details: for enzyme activity remaining: CYP2C19, HLM
T1 construct: tissue Life Technologies (Durham, NC, USA); host or cells: human liver microsomes
T1 sequence (P33261 whole entry): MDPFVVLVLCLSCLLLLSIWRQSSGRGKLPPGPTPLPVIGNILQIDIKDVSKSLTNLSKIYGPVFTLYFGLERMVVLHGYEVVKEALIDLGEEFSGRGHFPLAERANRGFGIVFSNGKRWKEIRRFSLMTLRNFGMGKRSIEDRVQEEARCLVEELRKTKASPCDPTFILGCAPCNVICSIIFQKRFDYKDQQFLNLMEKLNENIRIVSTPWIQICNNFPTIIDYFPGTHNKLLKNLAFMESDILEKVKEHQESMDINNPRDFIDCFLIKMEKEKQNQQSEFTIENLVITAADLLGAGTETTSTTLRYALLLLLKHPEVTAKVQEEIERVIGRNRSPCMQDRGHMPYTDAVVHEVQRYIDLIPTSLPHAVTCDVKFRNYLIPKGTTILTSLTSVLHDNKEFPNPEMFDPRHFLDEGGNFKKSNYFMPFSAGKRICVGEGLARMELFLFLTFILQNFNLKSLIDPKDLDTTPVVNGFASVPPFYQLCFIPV
Protocol: The markers used to determine the activities of CYP isoforms were phenacetin O-deethylation for CYP1A2 (probe substrate: 50 µM phenacetin), bupropion hydroxylation for CYP2B6 (probe substrate: 70 µM bupropion), paclitaxel 6α-hydroxylation for CYP2C8 (probe substrate: 10 µM paclitaxel), diclofenac 4′-hydroxylation for CYP2C9 (probe substrate: 5 µM diclofenac), S-(+)-mephenytoin 4′-hydroxylation for CYP2C19 (probe substrate: 20 µM S-(+)-mephenytoin), dextromethorphan O-demethylation for CYP2D6 (probe substrate: 6 µM dextromethorphan), chlorzoxazone 6′-hydroxylation for CYP2E1 (probe substrate: 70 µM chlorzoxazone), and testosterone 6β-hydroxylation and midazolam 1′-hydroxylation for CYP3A4/5 (probe substrate: 45 µM testosterone and 5 µM midazolam). […] Alpha-naphthoflavone (0.04 µM), 2-phenyl-2-(1-piperidinyl)propane (5 µM), quercetin (1 µM), sulfaphenazole (0.5 µM), ticlopidine (4 µM), quinidine (0.2 µM), diethyldithiocarbamate (20 µM), and ketoconazole (0.05 µM) were used as positive inhibitors of CYP1A2, 2B6, 2C8, 2C9, 2C19, 2D6, 2E1, and 3A4, respectively. The vehicle control was prepared in the same composition as inhibitor solutions but free of inhibitors. The concentrations of probe substrates were close to Km values that were determined in-house and within the range recommended by the FDA ([Huang et al., 2007]). Reaction mixtures were incubated at 37°C for 5, 20, or 30 min, depending on the probe substrates of CYP isoforms. The reactions were terminated by adding cold acetonitrile containing IS, and the terminated incubation mixtures were centrifuged at 3,000 g for 10 min before LC-MS/MS analysis.

Q: For `C[C@H](Nc1ncnc(N)c1C#N)c1cc2ncc(Cl)n2nc1-c1ccccc1` [Amdizalisib], which CLint scaled at 1 µM ([1]; female, monkey, microsomes, pH 7.4, Predicted CL int, iv vivo) is on record?
A: 19.2 mL/min/kg

Q: And the half-life at 1 µM ([1]; female, monkey, microsomes, pH 7.4, in vitro t1/2)?
A: 1.63 h

Q: And the “Predicted CL sys” value ([1]; male monkey liver microsomes, FMO deactivation)?
A: 15.9 mL/min/kg

Q: What about the CLint scaled at 1 µM ([1]; male, monkey, microsomes, pH 7.4, Predicted CL int, iv vivo) of the same compound?
A: 30 mL/min/kg

Q: And the half-life at 1 µM ([1]; male, monkey, microsomes, pH 7.4, in vitro t1/2)?
A: 1.04 h

Q: What about the CLint scaled at 1 µM ([1]; pH 7.4, female monkey liver microsomes, FMO deactivation, read-out: Predicted CL int, iv vivo) of the same compound?
A: 18.1 mL/min/kg

Q: What about the half-life at 1 µM ([1]; pH 7.4, female monkey liver microsomes, FMO deactivation, read-out: in vitro t1/2) of the same compound?
A: 1.72 h

Q: And the “Binding fraction to plasma proteins, Monkey” value (from here on “Binding fraction”) (plasma proteins; 0.1 µM)?
A: 90.6 ± 4.56%

Q: And the “Binding fraction” value (plasma proteins; 1 µM)?
A: 89.7 ± 0.22%

Q: And the “Binding fraction” value (plasma proteins; 20 µM)?
A: 88.9 ± 0.38%

Q: What about the half-life ([2]; SD, female rat, PO 5 mg/kg, pancreas) of the same compound?
A: 3.38 h

Q: And the half-life ([2]; SD, male rat, PO 5 mg/kg, liver)?
A: 1.76 h

Q: What about the Kp ([2]; both sexes, SD, rat, po, 5 mg/kg, exposure in the intestines versus plasma) of the same compound?
A: 3 to 6

Q: And the AUC(0-t) ([2]; female, SD, rat, po, 5 mg/kg)?
A: 11400 ng·h/mL

Q: What about the Cmax ([2]; female, SD, rat, po, 5 mg/kg) of the same compound?
A: 993 ng/mL

Q: What about the Kp ([2]; female, SD, rat, po, 5 mg/kg, female rat, PO 5 mg/kg, colon, read-out: AUC0-t ratio of tissue/plasma) of the same compound?
A: 1.52

Q: And the Cmax ([2]; female, Sprague-Dawley, rat, po, 5 mg/kg)?
A: 6950 ng/g

Q: What about the AUC(0-t) ([2]; male, SD, rat, po, 5 mg/kg) of the same compound?
A: 1380 ng·h/mL

Q: And the Cmax ([2]; male, SD, rat, po, 5 mg/kg)?
A: 394 ng/mL

Q: What about the Tmax ([2]; male, SD, rat, po, 5 mg/kg, Tmax) of the same compound?
A: 1 h

Q: And the Kp ([2]; male, SD, rat, po, 5 mg/kg, male rat, PO 5 mg/kg, bladder, read-out: AUC0-t ratio of tissue/plasma)?
A: 1.08

Q: What about the Kp ([2]; male, SD, rat, po, 5 mg/kg, male rat, PO 5 mg/kg, pancreas, read-out: AUC0-t ratio of tissue/plasma) of the same compound?
A: 3.97

Q: What about the Cmax ([2]; male, Sprague-Dawley, rat, po, 5 mg/kg) of the same compound?
A: 5080 ng/g

Q: What about the RB ([3]; dog blood, 1 μM, 0 min) of the same compound?
A: 1.01

Q: And the fuB ([3]; dog, 0 min, 1 µM)?
A: 10.9%

Q: What about the fup ([3]; dog, 1 µM) of the same compound?
A: 0.109

Q: What about the RB ([3]; dog, 10 min, 1 µM) of the same compound?
A: 0.874

Q: And the fuB ([3]; dog, 10 min, 1 µM)?
A: 12.5%

Q: What about the RB ([3]; dog, 60 min, 1 µM) of the same compound?
A: 0.968

Q: And the fuB ([3]; dog, 60 min, 1 µM)?
A: 11.3%

Q: What about the “induction on CYP2C9 mRNA expression” value (CYP2C9 mRNA; 20 uM) of the same compound?
A: >2-fold induction on CYP1A2, 2B6, 3A4, 2C9 mRNA expression at 20 uM

Q: What about the “Gene expression Percent of PC (%)” value (CYP2C9 mRNA; CYP2C9, donor eight, 0.3 µM) of the same compound?
A: 5.23%

Q: And the “Gene expression Percent of PC (%)” value (CYP2C9 mRNA; CYP2C9, donor eight, 3 µM)?
A: 20.0%

Q: What about the “Gene expression Percent of PC (%)” value (CYP2C9 mRNA; CYP2C9, donor eight, 20 µM) of the same compound?
A: 54.5%

Q: What about the “Gene expression Percent of PC (%)” value (CYP2C9 mRNA; CYP2C9, donor four, 0.3 µM) of the same compound?
A: 16.1%

Q: And the “Gene expression Percent of PC (%)” value (CYP2C9 mRNA; CYP2C9, donor four, 3 µM)?
A: 28.8%

Q: What about the “Gene expression Percent of PC (%)” value (CYP2C9 mRNA; CYP2C9, donor four, 20 µM) of the same compound?
A: 81.6%

Q: What about the “Gene expression Percent of PC (%)” value (CYP2C9 mRNA; CYP2C9, donor one, 0.3 µM) of the same compound?
A: 12.7%

Q: What about the “Gene expression Percent of PC (%)” value (CYP2C9 mRNA; CYP2C9, donor one, 3 µM) of the same compound?
A: 18.0%

Q: And the “Gene expression Percent of PC (%)” value (CYP2C9 mRNA; CYP2C9, donor one, 20 µM)?
A: 59.0%

Q: What about the enzyme activity remaining (CYP2C19; 0.08 μM) of the same compound?
A: 97.1% and 111%

Q: And the enzyme activity remaining (CYP2C19; 0.4 μM)?
A: 105%

Q: And the enzyme activity remaining (CYP2C19; 0.4 μM, listed as amdizalisib)?
A: 99.5%

Q: And the enzyme activity remaining (CYP2C19; 2 μM)?
A: 102% and 98.0%

Q: What about the enzyme activity remaining (CYP2C19; 10 μM) of the same compound?
A: 96.6% and 88.1%

Q: What about the enzyme activity remaining (CYP2C19; 50 μM) of the same compound?
A: 68.6% and 65.9%

Q: And the IC50 (CYP2C19; HLM, reversible, without pre-incubation)?
A: > 50 µM
